Experimental data published in patent publication US11033567B2, “5-aza-2′-deoxycytidine and methods of use thereof for promoting wound healing and regeneration” (THE TRUSTEES OF THE UNIVERSITY OF PENNSYLVANIA, priority 2014, dated 2021).
“Also recorded” adds a separate entry of the source.

Key:
[1] = system: C57B mice carrying full-thickness skin wounds; assay: Effect of systemic Aza-dC treatment (injection) on wound healing and hair follicle regeneration; type: in vivo
Source text: Determining the Effect of Systemic Aza-dC Treatment on Wound Healing and Regeneration:
The dermis was fixed in acetone overnight.

[2] = system: C57B mice carrying full-thickness skin wounds; assay: Effect of topical Aza-dC treatment on wound healing and hair follicle regeneration; type: in vivo; conditions: for hair follicle (HF) neogenesis compared to the vehicle control / hair follicle regeneration: topical; for hair follicle (HF) neogenesis compared to the vehicle control: once a day for 2 consecutive days (SD0 & SD1); for hair follicle regeneration: once a day for 5 consecutive days
Source text: Determining the Effect of Topical Aza-dC Treatment on Wound Healing and Regeneration: […]

Nc1ncn([C@H]2C[C@H](O)[C@@H](CO)O2)c(=O)n1 [Aza-dC, 5-aza-2′-deoxycytidine]
regeneration of hair follicles in healed wounds ([1]; injection, 30 μg per gram body weight once a day for 5 consecutive days (SD0 to SD4)): greatly inhibited
hair follicle regeneration ([1]; single injection of 30 μg per gram body weight on SD0): no effect
hair follicle regeneration ([1]; single injection of 30 μg per gram body weight on SD1): inhibition on hair follicle regeneration; also recorded: greatly inhibited
inhibitory effect on wound-induced hair follicle regeneration ([2]; topical application, unlike systemic treatment): little inhibitory effect
stimulatory effect on regeneration ([2]; topical treatment extended to 5 days (SD0 to SD4)): diminished
hair follicle (HF) neogenesis compared to the vehicle control ([2]; all doses tested): greatly enhanced
hair follicle (HF) neogenesis compared to the vehicle control ([2]; highest tested dose 10 μg): strongest enhancement
hair follicle regeneration ([2]; 1 μg): little effect
hair follicle regeneration ([2]; 5 μg): little effect
hair follicle regeneration ([2]; 10 μg): still enhanced
